Reference: patent publication US5330897A, “Sialic acid binding lectin of protozoan origin” (South Alabama Medical Science Foundation, priority 1992, dated 1994)

What was measured:
[1] = test system: T. mobilensis lectin; experiment: Inhibition of T. mobilensis lectin-mediated hemagglutination; format: biochemical, Tritrichomonas mobilensis; conditions: for Minimal Inhibitory Conc.: 2 units of hemagglutinin
[2] = test system: T. mobilensis cell-free lysate hemagglutinin; experiment: Inhibition of HA activity of T. mobilensis cell-free lysate; format: biochemical, Tritrichomonas mobilensis; conditions: carbohydrates, […]
[3] = test system: T. foetus cell-free lysate hemagglutinin; experiment: Inhibition of HA activity of T. foetus cell-free lysate; format: biochemical, Tritrichomonas foetus; conditions: carbohydrates, […]
[4] = test system: T. augusta cell-free lysate hemagglutinin; experiment: Inhibition of HA activity of T. augusta cell-free lysate; format: biochemical, Tritrichomonas augusta; conditions: carbohydrates, […]

Row | Molecule | Minimal Inhibitory Conc. ([1]; carbohydrates) | Minimal Inhibitory Conc. ([1]; glycoproteins or proteins) | also measured
1 | COC1(C(=O)O)CC(O)C(NC(C)=O)C(C(O)C(O)CO)O1 (stereo not drawn) [N-acetylneruaminic acid β-methyl glycoside] | > 100 mM | – | –
2 | OC1OC[C@@H](O)[C@@H](O)[C@@H]1O (stereo partly drawn) [D-arabinose] | > 100 mM | – | Conc. required to inhibit 2 HA units, T. mobilensis [2]: > 200 µg/mL; Conc. required to inhibit 2 HA units, T. foetus [3]: > 200 µg/mL; Conc. required to inhibit 2 HA units, T. augusta [4]: > 200 µg/mL
3 | OC[C@H]1O[C@@](CO)(O[C@H]2O[C@H](CO)[C@@H](O)[C@H](O)[C@H]2O)[C@@H](O)[C@@H]1O [Sucrose] | > 100 mM | – | Conc. required to inhibit 2 HA units, T. mobilensis [2]: > 200 µg/mL; Conc. required to inhibit 2 HA units, T. foetus [3]: > 200 µg/mL; Conc. required to inhibit 2 HA units, T. augusta [4]: > 200 µg/mL
4 | Lysozyme: glycoprotein or protein tested as inhibitor | – | > 1000 µg/mL | –
5 | Fibronectin | – | > 333 µg/mL | –
6 | CC(=O)N[C@H]1C(O)O[C@H](CO)[C@@H](O)[C@@H]1O[C@H](C)C(=O)O (stereo partly shown) [N-acetylmuramic acid] | > 100 mM | – | –
7 | Egg Albumin: glycoprotein or protein tested as inhibitor | – | > 1000 µg/mL | –
8 | O=P(O)(O)OC[C@H]1OC(O)[C@@H](O)[C@@H](O)[C@@H]1O (stereo partly shown) [Mannose-6-phosphate] | > 100 mM | – | –
9 | CC(=O)N[C@H]1[C@H](O[C@H]2[C@H](O)[C@@H](NC(C)=O)C(O)O[C@@H]2CO)O[C@H](CO)[C@@H](O)[C@@H]1O (stereo partly shown) [N,N-diacetyl chitobiose] | > 100 mM | – | –
10 | CC(=O)NC1C(O)CC(OC2C(O)C(CO)OC(OC3C(CO)OC(O)C(O)C3O)C2O)(C(=O)O)OC1C(O)C(O)CO (stereo not shown) [3'-sialyllactose] | 2.0 mM | – | –
11 | O=P(O)(O)OC1O[C@H](CO)[C@@H](O)[C@H](O)[C@@H]1O (stereo partly shown) [mannose-1-phosphate] | > 100 mM | – | –
12 | O=C(O)[C@H]1OC(O)[C@H](O)[C@@H](O)[C@H]1O (stereo partly drawn) [D-galacturonic acid] | > 100 mM | – | –
13 | OC[C@H]1O[C@H](O[C@H]2[C@H](O)[C@@H](O)C(O)O[C@@H]2CO)[C@H](O)[C@@H](O)[C@@H]1O (mixture of isomers) [Maltose] | > 100 mM | – | –
14 | Avidin: glycoprotein or protein tested as inhibitor | – | > 1000 µg/mL | –
15 | glucuronic acid | > 100 mM | – | –
16 | Laminin | – | 6.8 µg/mL | –
17 | COC(=O)C1(OC)CC(O)C(NC(C)=O)C(C(O)C(O)CO)O1 (stereo not drawn) [N-acetylneuraminic acid methyl ester, β-methyl glycoside] | > 100 mM | – | –
18 | GD1A | – | – | Inhibition of hemagglutination by gangliosides ([1]; at mg/ml concentrations): did not inhibit
19 | CC(=O)NC1C(O)CC(OCC2OC(OC3C(CO)OC(O)C(O)C3O)C(O)C(O)C2O)(C(=O)O)OC1C(O)C(O)CO (stereo not shown) [6'-sialyllactose] | 1.0 mM | – | –
20 | CC(=O)N[C@H]1[C@@H](O)[C@H](O)[C@@H](CO)O[C@H]1O [N-acetyl-β-D-mannosamine] | > 100 mM | – | –
21 | Bovine Albumin: glycoprotein or protein tested as inhibitor | – | > 1000 µg/mL | –
22 | Asialofetuin: asialo- analog of fetuin (protein, UniProt P12763 19-359, looked up, desialylated, asialo- analog of fetuin) Alpha-2-HS-glycoprotein: IPLDPVAGYKEPACDDPDTEQAALAAVDYINKHLPRGYKHTLNQIDSVKVWPRRPTGEVYDIEIDTLETTCHVLDPTPLANCSVRQQTQHAVEGDCDIHVLKQDGQFSVLFTKCDSSPDSAEDVRKLCPDCPLLAPLNDSRVVHAVEVALATFNAESNGSYLQLVEISRAQFVPLPVSVSVEFAVAATDCIAKEVVDPTKCNLLAEKQYGFCKGSVIQKALGGEDVRVTCTLFQTQPVIPQPQPDGAEAEAPSAVPDAAGPTPSAAGPPVASVVVGPSVVAVPLPLHRAHYDLRHTFSGVASVESSSGEAFHVGKTPIVGQPSIPGGPVRLCPGRIRYFKI | – | 26.0 µg/mL | –
